Earlier results as cited in patent publication US20090202672A1, “AQUACULTURE FEED, PRODUCTS, AND METHODS COMPRISING BENEFICIAL FATTY ACIDS” (Monsanto Company, priority 2008, published 2009).

Experiments:
[1] = test system: cell line from turbot, Scopthalmus maximus; conditions: Ghioni et al 1999
[2] = test system: established cell line from Atlantic salmon, Salmo salar; conditions: Ghioni et al 2004

CC/C=C\C/C=C\C/C=C\C/C=C\CCCCC(=O)O [SDA, stearidonic acid]
Conversion of SDA to EPA [1]: limited conversion of SDA to EPA
Bioconversion of SDA to EPA and DHA [2]: bioconversion of SDA to EPA, but not DHA
